Literature values in patent US20090004290A1, “RED YEAST RICE COMPOUND FOR CANCER CHEMOPREVENTION” (priority 2007, published 2009).

How the values were obtained:
[1] = tested on: lung cancer; details: secondary endpoint; follow up of over 1300 participants; selenium supplementation
[2] = tested on: lung cancer; details: interim analysis of over 3200 participants
[3] = tested on: lung cancer
[4] = tested on: total, breast, colorectal, or other site-specific cancers; details: 100 mg alternate day, average 10 years of treatment, women

[Se] [selenium, Selenium]
hazard ratio (lung cancer) [1]: 0.56 | trend of lung cancer with supplementation / dietary intake [2]: significant inverse trend

Cc1c(C)c2c(c(C)c1O)CC[C@@](C)(CCC[C@H](C)CCC[C@H](C)CCCC(C)C)O2 [Alpha-tocopherol]
mortality due to hemorrhagic stroke ([3]; participants that received Alpha-tocopherol): higher mortality | decrease incidence of lung cancer ([3]; participants with highest blood levels vs quartile with lowest levels): 19%

CC(=O)Oc1ccccc1C(=O)O [aspirin, acetylsalicylic acid]
risk of total, breast, colorectal, or other site-specific cancers [4]: does not lower risk

[Zn] [zinc, Zinc]
trend of lung cancer with supplementation / dietary intake [2]: significant chemoprotective trend

[Cu] [copper, Copper]
trend of lung cancer with supplementation / dietary intake [2]: protective trend
